Non-standard residues stand in square brackets, D forms with d.
Test system: αvβ6 integrin
Assay: Integrin inhibition assay (ELISA): inhibition of αvβ6 integrin binding to LAP (TGF-β1)
Parameters: species or system human
Conditions: 1 µM peptide preincubated 1 h at room temperature with 10 nM integrin αvβ6, 1.0 mM Mn2+, plate coated with 10 nM LAP (TGF-β1), absorbance at 490 nm, mean ± standard error, N = 3, numbers only in Figure 8, text gives comparisons in words
From the text: Among the RGD-binding integrins, we selected αvβ6 integrin for measurement of the inhibition activity of the cyclic peptides. The αvβ6 integrin is reported to recognize the sequence beyond the RGD motif, RGDLXXL ([Dong et al., 2014]). Therefore, the inhibition activity of the cyclic peptides is expected to vary depending on the configuration and the modification at the CPC moiety. In addition, the inhibitor of the αvβ6 integrin is still under development ([John et al., 2020]), while an efficient inhibitor, cilengitide, exists for the αvβ3 and αvβ5 integrins ([Stupp and Ruegg, 2007]). […] The inhibitory activity of the commonly used RGD tripeptide was also measured as a control. […]
The integrin inhibition assay was performed as follows. […] The bound αvβ6 integrin was detected by the biotinylated anti-Velcro polyclonal antibody and horseradish peroxidase-conjugated streptavidin. […] The bound antibody was detected by horseradish peroxidase-conjugated streptavidin (0.53 μg/mL), followed by colorimetrically measuring the amount of bound αvβ6 integrin using o-phenylenediamine (0.4 mg/mL; FUJIFILM Wako) and H2O2 (0.006%) in a 25 mM citric acid/50 mM Na2HPO4 buffer. The colorimetric reaction was stopped with 100 μL of 2.5 M H2SO4, and the absorbance of the chromogenic substrate was measured at 490 nm using a microplate reader (Molecular Devices EMax). […]

Row | Substance | Inhibitory activity for binding of the αvβ6 integrin with LAP (TGF-β1)
1 | cyclo(CRGDC[dP]) (cysteine pairing not given here) [3a] | stronger than 3c and 3d
2 | cyclo([dC]RGDC[dP]) (cysteine pairing not given here) [3b] | stronger than 3c and 3d

— PMC11169864, “Application of cysteinyl prolyl ester for the synthesis of cyclic peptides containing an RGD sequence and their biological activity measurement” (Frontiers in Chemistry, 2024)
